Experimental data published in the NIST ThermoML archive (doi:10.1021/acs.jced.6b00096).

Legend:
[1] = xn = mol fraction of the nth substance listed; details: 100 kPa, Liquid; for viscosity: Falling or rolling sphere viscometry; for mass density: Vibrating tube method

CC(C)(C)O [2-methylpropan-2-ol]
100 kPa
Details	mass density [kg/m3]	viscosity [mPa·s]
298.15 K, Metastable liquid, Falling or rolling sphere viscometry	–	4.426
298.15 K, Metastable liquid, Vibrating tube method	780.99	–
318.15 K, Falling or rolling sphere viscometry, Liquid	–	1.706
318.15 K, Vibrating tube method, Liquid	759.66	–

CC(C)(C)O [2-methylpropan-2-ol] + CCO
[1]
Details	mass density, 298.15 K [kg/m3]	mass density, 318.15 K [kg/m3]	viscosity, 298.15 K [mPa·s]	viscosity, 318.15 K [mPa·s]
x2 = 0.045	781.92	761.37	4.314	1.724
x2 = 0.082	782.51	762.26	4.195	1.721
x2 = 0.1516	–	763.35	–	1.692
x2 = 0.1518	783.11	–	3.939	–
x2 = 0.287	783.69	–	3.395	–
x2 = 0.2872	–	764.69	–	1.577
x2 = 0.4083	–	765.58	–	1.442
x2 = 0.4085	783.95	–	2.86	–
x2 = 0.5174	784.15	766.2	2.384	1.308
x2 = 0.6167	784.31	–	2.026	–
x2 = 0.6168	–	766.59	–	1.188
x2 = 0.707	784.42	–	1.749	–
x2 = 0.7072	–	766.91	–	1.078
x2 = 0.7896	784.55	767.15	1.532	0.983
x2 = 0.8654	784.72	–	1.349	–
x2 = 0.8656	–	767.35	–	0.895
x2 = 0.9355	784.85	767.46	1.205	0.817

CC(C)(C)O [2-methylpropan-2-ol] + Cc1ccccc1
[1]
Details	mass density, 298.15 K [kg/m3]	mass density, 318.15 K [kg/m3]	viscosity, 298.15 K [mPa·s]	viscosity, 318.15 K [mPa·s]
x2 = 0.0822	786.59	765.3	2.579	1.171
x2 = 0.1676	–	771.88	–	0.899
x2 = 0.1678	792.96	–	1.625	–
x2 = 0.2564	799.78	–	1.184	–
x2 = 0.2565	–	778.96	–	0.744
x2 = 0.3488	807.09	–	0.991	–
x2 = 0.3491	–	786.64	–	0.649
x2 = 0.4458	815	–	0.868	–
x2 = 0.4459	–	794.84	–	0.582
x2 = 0.5467	–	803.43	–	0.528
x2 = 0.5468	823.34	–	0.744	–
x2 = 0.6524	–	812.43	–	0.486
x2 = 0.6525	832.08	–	0.624	–
x2 = 0.7621	841.26	–	0.562	–
x2 = 0.7627	–	821.89	–	0.461
x2 = 0.8787	851.02	–	0.561	–
x2 = 0.8788	–	832.02	–	0.454

CCO [ethanol]
100 kPa, Liquid
Details	mass density, 298.15 K [kg/m3]	mass density, 318.15 K [kg/m3]	viscosity, 298.15 K [mPa·s]	viscosity, 318.15 K [mPa·s]
Falling or rolling sphere viscometry	–	–	1.084	0.752
Vibrating tube method	785.01	767.54	–	–

Cc1ccccc1 [toluene]
100 kPa, Liquid
Details	mass density, 298.15 K [kg/m3]	mass density, 318.15 K [kg/m3]	viscosity, 298.15 K [mPa·s]	viscosity, 318.15 K [mPa·s]
Falling or rolling sphere viscometry	–	–	0.533	0.447
Vibrating tube method	862.01	843.51	–	–

Cc1ccccc1 [toluene] + CCO
[1]
Details	mass density [kg/m3]	viscosity [mPa·s]
298.15 K, x2 = 0.1003	857.16	–
298.15 K, x2 = 0.1005	–	0.549
298.15 K, x2 = 0.2002	852.38	–
298.15 K, x2 = 0.2013	–	0.558
298.15 K, x2 = 0.3	847.27	–
298.15 K, x2 = 0.3002	–	0.577
298.15 K, x2 = 0.4	841.65	–
298.15 K, x2 = 0.4003	–	0.606
298.15 K, x2 = 0.5001	–	0.644
298.15 K, x2 = 0.5002	835.35	–
298.15 K, x2 = 0.6001	828.22	0.693
298.15 K, x2 = 0.7	819.95	0.754
298.15 K, x2 = 0.8	810.35	0.831
298.15 K, x2 = 0.9	798.87	0.926
318.15 K, x2 = 0.1004	838.1	0.439
318.15 K, x2 = 0.2002	833.2	–
318.15 K, x2 = 0.2004	–	0.442
318.15 K, x2 = 0.2997	–	0.449
318.15 K, x2 = 0.3003	828.01	–
318.15 K, x2 = 0.4003	822.39	–
318.15 K, x2 = 0.4007	–	0.464
318.15 K, x2 = 0.5	816.2	–
318.15 K, x2 = 0.5007	–	0.483
318.15 K, x2 = 0.5998	–	0.508
318.15 K, x2 = 0.6001	809.19	–
318.15 K, x2 = 0.6998	–	0.542
318.15 K, x2 = 0.7001	801.21	–
318.15 K, x2 = 0.7996	791.97	–
318.15 K, x2 = 0.7999	–	0.585
318.15 K, x2 = 0.8998	–	0.641
318.15 K, x2 = 0.9	780.91	–
